Results reported in patent publication US20150291597A1, “NOVEL ORALLY BIOAVAILABLE BREATHING CONTROL MODULATING COMPOUNDS, AND METHODS OF USING SAME” (Galleon Pharmaceuticals, Inc., priority 2012, published 2015).

Assays:
[1] = Pharmacokinetics and oral bioavailability in the rat (IV and PO dosing, plasma LC-MS/MS); assay type: in vivo, Sprague-Dawley rats; settings: Sprague-Dawley, oral versus intravenous dosing
Description: Sprague-Dawley rats (200-300 g) were fed a standard laboratory rodent diet and housed in individual cages on a 12-hour light and 12-hour dark cycle with room temperature maintained at 22±3° C. and relative humidity at 50±20%. Rats were fasted overnight before dosing, with food returned after the 6 hour blood samples were obtained. Bedding was removed until after the 6 hour blood samples were obtained. Water was provided ad libitum throughout the study.
Dosing solution of test compound was prepared in desired oral formulation for oral administration via gavage needle at 10-30 mg/kg (10 mL/kg) to three or four rats. All blood samples (250 uL per sample) were taken via jugular vein or femoral vein at 0 (predose), 15, and 30 min and 1, 2,4, 6, 8, and 24 h after oral dosing. […]
Plasma samples (incurred study samples, calibration standards, quality controls) were normally prepared as follows. […] Calibration standards were typically prepared in the range of 2 ng/ml to 10 μg/mL for quantitation. […]
All pharmacokinetic parameters were determined based on a non-compartmental approach using WinNonlin software (Pharsight, Version 5.1). The terminal elimination half-life (t1/2) was calculated as ln2/λz using the slope (λz) from linear regression analysis of the terminal phase of the plasma concentration-time curve on a semi-log scale. […]

anesthetized rats = test: Anesthetized rat spirometry screening assay (respiratory rate, tidal volume, minute volume; IV bolus); assay type: in vivo; settings: 0.3 mg/kg IV bolus
Text: Anesthetized rats provide a quick method of screening compounds for respiratory and cardiovascular activity. In contrast to the conscious rat model, this model offers an experimental set up with less variation in the baseline cardiovascular and respiratory measures. Compounds screened in this assay may be examined in a conscious rat model.
Rats were initially anesthetized with 3% isoflurane (inhaled) and femoral artery and vein cannulas were surgically inserted. Once cannulated, the rats were transitioned to urethane anesthesia (1.5 g/kg; i.v.) and a tracheal cut-down was performed. After placing the tracheal cannula, it was connected to a pneumotach to record respiratory airflow from which respiratory rate (RR), tidal volume (VT), and their product minute volume were derived. After the surgical preparation was complete, animals were allowed to stabilize for 30 minutes while respiratory rate, tidal volume, minute volume, blood pressure and heart rate were recorded continuously. Arterial blood gases (ABG) were obtained from arterial blood collected from the femoral artery. ABG measurements were taken before and 6 minutes after vehicle and each dose of compound administered. Compounds being screened were administered via bolus injections through the venous cannula followed by a saline flush (total time of administration is approximately 30 seconds), and the animal was monitored for at least 6 minutes for changes in cardiovascular efforts. Compounds were prepared in formulations identified to ensure optimal solubility. As such, vehicle controls were matched for the formulation of each compound tested. Dosing of the compound being screened was 0.1 and 0.3 mg/kg. The next dose was not administered until all cardiovascular and respiratory measures had returned to baseline levels. The positive control compounds used were N-[4,6-di-(n-propylamino)-[1,3,5]triazin-2-yl]-O,N-dimethyl-hydroxylamine or N-[2,6-di-(n-propylamino)-[1,3]pyrimidin-4-yl]-O,N-dimethyl-hydroxylamine, both administered at the end of each screening experiment (0.3 mg/kg dose) to validate the experiment and also to serve as a measure with which the compound being screened could be compared.
Data were analyzed by collecting cardiovascular and respiratory data in 30 second averages (BINs). Data were plotted 2 minutes before challenge and then 6 minutes after challenge.
FIGS. 2A-2F summarize the effects of individual compounds on peak minute ventilation (increase in VE), overall increase in 2 minute area under the curve (AUC) which is a cumulative measure of effect, along with compound stability (half-life) in rat and human microsomes.

Q: Which bioavailability [1] does the source give for `C#CCNc1nc(NCCC)nc(N(C)OC)n1.Cl` [Compound 5a, O,N-Dimethyl-N-[4-(n-propylamino)-6-(prop-2-ynylamino)-[1,3,5]triazin-2-yl]-hydroxylamine hydrochloride] here?
A: 36%

Q: What about the “duration of the increase in minute ventilation” value (anesthetized rats) of the same compound?
A: approximately 2 minutes

Q: What about the “increase in minute ventilation above baseline values” (anesthetized rats) of the same compound?
A: up to 143%

Q: And the “increase in respiratory rate” value (anesthetized rats)?
A: up to 42%

Q: And the “increase in tidal volume” value (anesthetized rats)?
A: up to 73%
